The target of one assay is TLR2 (Homo sapiens, UniProt O60603). As to the kind of experiment: TLR2 agonist screening assay, HEK-Blue TLR2 reporter cell line (NF-kB-driven SEAP, absorbance at 600 nm). In kind it is cell-based. Further details: host or cells: HEK-293 (HEK-Blue TLR2 reporter cell line). The conditions noted are these: HEK-Blue TLR2 reporter cells, agonist mode; average of all runs (Table 3). The text has this: TLRs are a class of cell-surface receptors expressed on many different cell types that recognize conserved structural motifs present on pathogen-derived molecules. TLR2 recognizes bacteria-derived lipopeptides. […] Provided herein is an assay to identify and characterize the binding affinities of novel TLR2 agonists.
Chain of TLR2 (O60603 21-784): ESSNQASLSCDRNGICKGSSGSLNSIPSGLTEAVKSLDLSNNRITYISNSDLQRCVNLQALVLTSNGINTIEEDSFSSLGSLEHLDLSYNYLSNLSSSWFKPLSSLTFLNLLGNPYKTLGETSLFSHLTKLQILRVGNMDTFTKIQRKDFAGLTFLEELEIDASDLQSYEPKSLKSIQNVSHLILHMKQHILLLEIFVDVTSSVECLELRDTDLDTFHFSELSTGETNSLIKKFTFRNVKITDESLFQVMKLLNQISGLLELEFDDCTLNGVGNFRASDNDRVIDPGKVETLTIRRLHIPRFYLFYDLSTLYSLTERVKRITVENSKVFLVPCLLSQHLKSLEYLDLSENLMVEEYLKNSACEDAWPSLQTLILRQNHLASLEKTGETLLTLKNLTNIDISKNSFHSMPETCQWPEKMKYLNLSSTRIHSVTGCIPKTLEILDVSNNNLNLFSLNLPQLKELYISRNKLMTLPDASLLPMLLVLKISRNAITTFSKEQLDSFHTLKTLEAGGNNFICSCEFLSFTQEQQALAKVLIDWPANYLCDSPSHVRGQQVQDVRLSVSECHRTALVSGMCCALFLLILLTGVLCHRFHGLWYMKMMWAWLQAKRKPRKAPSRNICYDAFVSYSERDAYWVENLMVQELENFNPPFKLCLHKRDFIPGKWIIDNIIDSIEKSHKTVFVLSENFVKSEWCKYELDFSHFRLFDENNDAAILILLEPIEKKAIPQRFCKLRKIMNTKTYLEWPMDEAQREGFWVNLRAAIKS
The in vitro TLR2 assay consists of a cell line that responds to TLR2 engagement by producing a factor that elicits a color change in the culture media and can be readily measured by various colorimetric detection methods. This assay enables the identification of existing and novel compounds that engage TLR2 and, by virtue of compound dilution, to approximate the binding affinity of these compounds for eliciting a TLR2 signal.
The TLR2 screening assay was developed from the HEK-Blue TLR2 reporter cell line that is commercially available from Invivogen (San Diego, CA). The reporter cell line consists of HEK-293 embryonic kidney cells that have been engineered to express TLR2 and with an NF-kB promoter driving expression of Secreted Alkaline Phosphatase (SEAP). Upon engagement of TLR2, downstream signaling results in activation of NF-kB pathway activation and secretion of SEAR In the presence of the detection reagent in the tissue culture media, SEAP mediates a color change from clear to indigo that is readily assessed by measuring absorbance at 600 nm.
HEK-Blue TLR2 reporter cells are cultured according to manufacturer's specifications until a confluence of 70-90%, at which point the cells are trypsinized, counted, and plated into 96-well plates at approximately 40,000 cells per well. Cells are cultured overnight and the TLR2 assay is performed 16-24 hours post-plating into 96 well plates.
Compounds are diluted from stocks dissolved in DMSO and a 1% DMSO final concentration is maintained in all testing wells.
The assay consists of removing the cell culture media after cells have been cultured overnight and replacing the media with HEK-Blue Detection media with TLR2 agonists at indicated dilution schemes. The Detection media contains a chemical substrate that turns from clear to indigo when acted upon by SEAP. The HEK-Blue cells are then cultured overnight in Detection media with diluted compounds. After overnight culture with agonists, each well of the plate is assayed in a plate reader at 600 nanometer absorbance.
• (1) HEK-Blue TLR2 cells are diluted in complete DME culture medium and plated into 96-well plates at 40,000 cells per well and cultured overnight. • (2) After 16-24 hours in culture, the media is removed and replaced with 200 microliters per well of HEK-Blue Detection media. • (3) TLR2 agonists are diluted 100-fold from DMSO stocks into each well, yielding a final DMSO concentration of 1% in all wells. • (3) Treated cells are cultured overnight and the following day are assayed in plate reader for Absorbance at 600 nanometer.
Following assay measurements utilizing either HEK-Blue detection or cytokine release, all data is analyzed with the GraphPad Prism8 statistical package to determine EC50, binding and activity metrics for the TLR2 modulators.
Data is generated using protocol described in Example 44.
Take `CCCCCCCNC(=O)[C@@H]1CN(C(=O)c2ccc(C(=O)N3C[C@@H](C(=O)N[C@H]4C[C@@H]4c4ccccc4)[C@H](C(=O)N[C@H]4C[C@@H]4c4ccccc4)C3)cc2)C[C@H]1OCCCCCCC` (relative stereo) [Compound 062, (3S,4S)-1-(4-((3R*,4S*)-3-(heptylcarbamoyl)-4-(heptyloxy)pyrrolidine-1-carbonyl)benzoyl)-N3,N4-bis((1S,2R)-2-phenylcyclopropyl)pyrrolidine-3,4-dicarboxamide]: the EC50 lay in the range of 51 to 350 nM.

`CCCCCCCCCCCCCCNC(=O)[C@@H]1CN(C(=O)c2ccc(C(=O)N3C[C@@H](C(=O)N[C@H]4C[C@@H]4c4ccccc4)[C@H](C(=O)N[C@H]4C[C@@H]4c4ccccc4)C3)cc2)C[C@@H]1OC` (single isomer, unassigned) [Compound 061, (3S,4S)-1-(4-((3R*,4R*)-3-methoxy-4-(tetradecylcarbamoyl)pyrrolidine-1-carbonyl)benzoyl)-N3,N4-bis((1S,2R)-2-phenylcyclopropyl)pyrrolidine-3,4-dicarboxamide]: the 50% effective concentration (EC50) was 0.1 to 50 nM.

For `CCCCCCCO[C@H]1CN(C(=O)c2ccc(C(=O)N3C[C@@H](C(=O)N[C@H]4C[C@@H]4c4ccccc4)[C@H](C(=O)N[C@H]4C[C@@H]4c4ccccc4)C3)cc2)C[C@H]1C(=O)NCCCCCC` (single isomer, unassigned) [Compound 073, (3S,4S)-1-(4-((3R*,4R*)-3-(heptyloxy)-4-(hexylcarbamoyl)pyrrolidine-1-carbonyl)benzoyl)-N3,N4-bis((1S,2R)-2-phenylcyclopropyl)pyrrolidine-3,4-dicarboxamide], the half-maximal effective concentration (EC50) lay within 351 to 1000 nM.

The assay is the same for the next values; noted with them: HEK-Blue TLR2 reporter cells, agonist mode; average of all runs (Table 4).
As to `CCCCCCCC[C@H]1CN(C(=O)c2ccc(C(=O)N3C[C@@H](C(=O)N[C@H]4C[C@@H]4c4ccccc4)[C@H](C(=O)N[C@H]4C[C@@H]4c4ccccc4)C3)cc2)C[C@H]1C(=O)NCCCCCC` (relative stereo) [Compound 086, (3S,4S)-1-(4-((3S*,4R*)-3-(hexylcarbamoyl)-4-octylpyrrolidine-1-carbonyl)benzoyl)-N3,N4-bis((1S,2R)-2-phenylcyclopropyl)pyrrolidine-3,4-dicarboxamide], the EC50 was greater than 1000 nM.

`O=C(N[C@H]1C[C@@H]1c1ccccc1)[C@@H]1CN(C(=O)c2ccc(C(=O)N3C[C@@H](C(=O)N[C@H]4C[C@@H]4c4ccccc4)[C@H](C(=O)N[C@H]4C[C@@H]4c4cccnc4)C3)cc2)C[C@H]1C(=O)N[C@H]1C[C@@H]1c1ccccc1` (relative stereo) [Compound 096, (3S,4S)—N3-((1S)-2-phenylcyclopropyl)-N4-(2-phenylcyclopropyl)-1-(4-((3S,4S)-3-(((1S,2R)-2-phenylcyclopropyl)carbamoyl)-4-(((1S*,2R*)-2-(pyridin-3-yl)cyclopropyl)carbamoyl)pyrrolidine-1-carbonyl)benzoyl)pyrrolidine-3,4-dicarboxamide] registered a concentration for a half-maximal effect (EC50) of 0.1 to 50 nM.

The molecule `CCCCCCCO[C@H]1CN(C(=O)c2ccc(C(=O)N3C[C@@H](C(=O)N[C@H]4C[C@@H]4c4ccccc4)[C@H](C(=O)N[C@H]4C[C@@H]4c4ccccc4)C3)cc2)C[C@@H]1C(=O)NCCCCCC` (relative stereo) [Compound 113, (3S,4S)-1-(4-((3R*,4S*)-3-(heptyloxy)-4-(hexylcarbamoyl)pyrrolidine-1-carbonyl)benzoyl)-N3,N4-bis((1S,2R)-2-phenylcyclopropyl)pyrrolidine-3,4-dicarboxamide] displayed a concentration giving a half-maximal response (EC50) of 51 to 350 nM.

Turning to `CCCCCCCO[C@@H]1CN(C(=O)c2ccc(C(=O)N3C[C@@H](C(=O)N[C@H]4C[C@@H]4c4ccccc4)[C@H](C(=O)N[C@H]4C[C@@H]4c4ccccc4)C3)cc2)C[C@@H]1C(=O)NCCCCCC` (relative stereo) [Compound 116, (3S,4S)-1-(4-((3S*,4S*)-3-(heptyloxy)-4-(hexylcarbamoyl)pyrrolidine-1-carbonyl)benzoyl)-N3,N4-bis((1S,2R)-2-phenylcyclopropyl)pyrrolidine-3,4-dicarboxamide], the EC50 fell in the range of 351 to 1000 nM.

Regarding `O=C(N[C@H]1C[C@@H]1c1ccccc1)[C@@H]1CN(C(=O)c2ccc(C(=O)N3C[C@@H](C(=O)N[C@H]4C[C@@H]4c4cccnc4)[C@H](C(=O)N[C@H]4C[C@@H]4c4cccnc4)C3)cc2)C[C@H]1C(=O)N[C@H]1C[C@@H]1c1ccccc1` (single isomer, unassigned) [Compound 094, (3S,4S)-1-(4-((3S,4S)-3,4-bis(((1S*,2R*)-2-(pyridin-3-yl)cyclopropyl)carbamoyl)pyrrolidine-1-carbonyl)benzoyl)-N3,N4-bis((1S,2R)-2-phenylcyclopropyl) pyrrolidine-3,4-dicarboxamide], the half-maximal effective concentration (EC50) was in the range of 51 to 350 nM.

`O=C(N[C@H]1C[C@@H]1c1ccccc1)[C@@H]1CN(C(=O)c2ccc(C(=O)N3C[C@@H](C(=O)N[C@@H]4C[C@H]4c4cccnc4)[C@H](C(=O)N[C@@H]4C[C@H]4c4cccnc4)C3)cc2)C[C@H]1C(=O)N[C@H]1C[C@@H]1c1ccccc1` (single isomer, unassigned) [Compound 095, (3S,4S)-1-(4-((3S,4S)-3,4-bis(((1S*,2R*)-2-(pyridin-3-yl)cyclopropyl)carbamoyl)pyrrolidine-1-carbonyl)benzoyl)-N3,N4-bis((1S,2R)-2-phenylcyclopropyl) pyrrolidine-3,4-dicarboxamide] had a 50% effective concentration (EC50) of 351 to 1000 nM.

Take `O=C(N[C@H]1C[C@@H]1c1ccccc1)[C@@H]1CN(C(=O)c2ccc(C(=O)N3C[C@@H](C(=O)N[C@H]4C[C@@H]4c4ccccc4)[C@H](C(=O)N[C@@H]4C[C@H]4c4cccnc4)C3)cc2)C[C@H]1C(=O)N[C@H]1C[C@@H]1c1ccccc1` (single isomer, unassigned) [Compound 097, (3S,4S)—N3-((1S)-2-phenylcyclopropyl)-N4-(2-phenylcyclopropyl)-1-(4-((3S,4S)-3-(((1S,2R)-2-phenylcyclopropyl)carbamoyl)-4-(((1S*,2R*)-2-(pyridin-3-yl)cyclopropyl)carbamoyl)pyrrolidine-1-carbonyl)benzoyl)pyrrolidine-3,4-dicarboxamide]: the EC50 was 51 to 350 nM.

Take `CCCCCCCCCCCCCCNC(=O)[C@@H]1CN(C(=O)c2ccc(C(=O)N3C[C@@H](C(=O)N[C@H]4C[C@@H]4c4ccccc4)[C@H](C(=O)N[C@H]4C[C@@H]4c4ccccc4)C3)cc2)C[C@@H]1O` (single isomer, unassigned) [Compound 103, (3S,4S)-1-(4-((3R*,4R*)-3-hydroxy-4-(tetradecylcarbamoyl)pyrrolidine-1-carbonyl)benzoyl)-N3,N4-bis((1S,2R)-2-phenylcyclopropyl) pyrrolidine-3,4-dicarboxamide]: the EC50 fell in the range of 351 to 1000 nM.

As for `CCCCCCCCCCCCCCNC(=O)[C@@H]1CN(C(=O)c2ccc(C(=O)N3C[C@@H](C(=O)N[C@H]4C[C@@H]4c4ccccc4)[C@H](C(=O)N[C@H]4C[C@@H]4c4ccccc4)C3)cc2)C[C@H]1O` (single isomer, unassigned) [Compound 105, (3S,4S)-1-(4-((3R*,4S*)-3-hydroxy-4-(tetradecylcarbamoyl)pyrrolidine-1-carbonyl)benzoyl)-N3,N4-bis((1S,2R)-2-phenylcyclopropyl)pyrrolidine-3,4-dicarboxamide], the concentration for a half-maximal effect (EC50) is 51 to 350 nM.

`CCCCCCCCCCCCCCNC(=O)[C@H]1CN(C(=O)c2ccc(C(=O)N3C[C@@H](C(=O)N[C@H]4C[C@@H]4c4ccccc4)[C@H](C(=O)N[C@H]4C[C@@H]4c4ccccc4)C3)cc2)C[C@@H]1O` (single isomer, unassigned) [Compound 106, (3S,4S)-1-(4-((3S*,4R*)-3-hydroxy-4-(tetradecylcarbamoyl)pyrrolidine-1-carbonyl)benzoyl)-N3,N4-bis((1S,2R)-2-phenylcyclopropyl)pyrrolidine-3,4-dicarboxamide] had a concentration giving a half-maximal response (EC50) of 51 to 350 nM.

The molecule `CCCCCCCCCCCCCCNC(=O)[C@@H]1CN(C(=O)c2ccc(C(=O)N3C[C@@H](C(=O)N[C@H]4C[C@@H]4c4ccccc4)[C@H](C(=O)N[C@H]4C[C@@H]4c4ccccc4)C3)cc2)C[C@@H]1OC` (single isomer, unassigned) [Compound 107, (3S,4S)-1-(4-((3R*,4R*)-3-methoxy-4-(tetradecylcarbamoyl)pyrrolidine-1-carbonyl)benzoyl)-N3,N4-bis((1S,2R)-2-phenylcyclopropyl)pyrrolidine-3,4-dicarboxamide] came in with an EC50 of 351 to 1000 nM.

The record behind these values is patent publication US11951094B2, “TLR2 modulator compounds, pharmaceutical compositions and uses thereof” (Axial Therapeutics, Inc., priority 2020, dated 2024).
